# Entries after “also recorded” stand apart in the source; their conditions may differ.
# Columns and labels:
# psoriasis = settings: Phase III psoriasis study, topical formulation; not statistically significant; cited from earlier work
# [1] = Blood plasma levels of hydroxyproline in trout fed 90 days; format: in vivo; settings: for blood plasma levels of Hydroxyproline: trout fed for 90 days, FIG. 2
# Method: (§1) Trout were fed fish hydrolysate and fractions thereof to identify bioactive compounds (see Table 2).
# The y axis is plasma levels in micromoles per 100 ml and the x-axis is the dietary level of component in g per kg diet.
# [2] = test system: Atlantic salmon (Salmo salar); assay: 88 days growth experiment, growth and feed performance; format: in vivo; settings: 88 days feeding
# Description: The diets used were composed such that they are equal in protein, lipid and energy, and designed to vary only in level of Hydroxyproline. The small amounts of Hydroxyproline added (L-4-Hydroksyproline, >99.0% pure, Fluka BioChemika. Sigma-Aldrich Chemie GmbH) were exchanged with fish meal, and the diets were otherwise adjusted with the content of raw wheat to secure equal chemical composition. Five different levels of Hydroxyproline were used in a regression design with two replicates for each level, except the diet without Hydroxyproline addition that was run in triplicate tanks. The levels used of hydroxyproline were 0, 0.7 gkg^−1, 1.4 gkg^−1, 2.8 gkg^−1 and 5.6 gkg^−1. As a negative control, Proline (L-Proline, (Hydroxy-L-Proline Free) Sigma grade, Sigma Chemical Company) was added to a level of 2.8 gkg^−1.
# Atlantic salmon (Salmo salar) was obtained from Salmobreed May 2006. The fish was prevaccinated with Trippel Forte and was acclimated for 56 days before the trial started. The fish was given EWOS Opal Boost 50 3A, 3 mm pellets during this period. The fish was randomly distributed among 14 fiberglass tanks (1.5×1.5×1 m^3) with 80 fish per tank. Diet 1 and Diet 6 were run in triplicate tanks. Diet 2, Diet 3, Diet 4 and Diet 5 was run in duplicate tanks. Data are given also for a fish meal diet with no plant protein included. This diet was run simultaneously with fish of the same size, origin and treatment. This diet (Diet 7) was run in 2 m×2 m×1 m tanks in triplicate in a parallel experiment. The tanks were supplied with 75 I min^−1 of seawater taken from a depth of 50 m with average salinity of 3.2-3.3%. Water temperature was kept constant at 10.4±0.4° C. during the acclimatization and the experimental period, using a heat exchanger to adjust the sea water temperature. Throughout the experimental period of 88 days, the fish were exposed to 24 h artificial light. Great care was taken to reduce disturbance from the environment. Automatic feeders were used to add feed from 05.00 to 08.00 hrs and from 14.00 to 03.00 hrs. The level of feeding was regulated in such a way that offered feed was 110% of expected consumption based on daily monitoring of wasted feed. Uneaten feed was continuously removed by automatic collection and separated from feces using an Excess Fishfeed Collector (Holland Teknologi, Norway). Feed intake was measured daily as the difference between total feed given and total uneaten feed collected. Feed intake for the total experimental period was measured as the sum of the daily feed intakes, divided by feeding days and average fish weight during the experimental period; (start weight+final weight)/2. Feeding was sustained until the fish was sampled for analyses.
# The six experimental diets were randomly assigned to the 14 tanks, with 3 replicate tanks for Diet 1 and Diet 6 and to duplicate tanks for the other experimental diets. Initial fish weights and lengths were recorded. Twenty fish representing the weight ranges were sampled, killed by a blow on the head, frozen and kept at −80° C. pending analyses of fish at start. Final weights were determined for each fish in all tanks. At the end of the feeding period, the fish were anaesthetized with Eugonol (iso-eugunol was diluted 1:1 with ethanol and the diluted solution was added 15 ml per m^3 water in the tanks). After about 15 min, 10 fish from each tank were sampled, killed by a blow in the head, gutted and weight of slaughtered fish, liver and viscera were noted. Five other fish from each tank were pooled and frozen for pending analyses.
# The 88 days growth experiment was run successfully with a thermal growth coefficient (TGC) of 2.5 for the fish meal control diet. Some loss of fish occurred during the experimental period and some fish seemed not to develop normally. […]
# [3] = Retention of dietary hydroxyproline in fish; format: in vivo; settings: FIG. 1
# Method: as §1
# The experiments where fish were fed a diet including varying levels of hydroxyproline were performed as described above.
# The retention of hydroxyproline is statistically correlated to the dietary level. Low dietary levels (0.8 g per kg diet) give retention of close to 100% while higher dietary levels (>4.5 g per kg diet) gives retention of 20-30%.
# [4] = test system: Atlantic salmon (Salmo salar); assay: Subjective scoring of wounds on skin, damage on dorsal fin and loss of shells; format: in vivo; settings: scale from 0 (no damage) to 5 (severe damages), 88 days feeding, Diets 2-5 = 0.7, 1.4, 2.8, 5.6 gkg−1 added hydroxyproline, mean ± SD
# Method: Wounds on skin, damages on dorsal fin and loss of shells were evaluated in the 10 salmons from each tank. The measure was subjectively based on a scale from 0 (no damage) to 5 (severe damages). The data and statistics are included in the table below (based on 110 measures) and shown in the figure based on average values for each tank). The statistics given are based on linear regression. […] (Table 3 and FIGS. 5, 6 and 7)
# [5] = added hydroxyproline gkg−1: Diet 2 0.7, Diet 3 1.4, Diet 4 2.8, Diet 5 5.6, mean ± SD
# [6] = at 2.9 gkg−1 added Hydroxyproline
SMILES,greater improvement in mean lesion scores in the treated group compared to placebos (psoriasis) [%],"dietary level above which the negative effects are eliminated ([1]; from retention, plasma and tissue data)",blood plasma levels of Hydroxyproline ([1]; dietary level 0.8 g per kg),blood plasma levels of Hydroxyproline ([1]; dietary levels >4 g per kg),nutritional requirement indicated by the growth curve [2],"Body weight at end, g [2, 5]","Weight gain, g/fish [2, 5]","increase of weight gain compared with no Hydroxyproline added (Diet 1) [2, 6] [%]","weight gain at the maximum of the regression equation [2, 6] [g]","added Hydroxyproline at maximum of the weight gain regression equation ([2]; polynomial regression, n=11) [gkg−1]","SGR ([2]; specific growth rate, Diets 2-5 = 0.7, 1.4, 2.8, 5.6 gkg−1 added hydroxyproline, mean ± SD)","TGC ([2]; thermal growth coefficient, Diets 2-5 = 0.7, 1.4, 2.8, 5.6 gkg−1 added hydroxyproline, mean ± SD)",retention of Hydroxyproline in the fish ([3]; higher dietary levels (>4.5 g per kg diet)),retention of Hydroxyproline in the fish ([3]; low dietary levels (0.8 g per kg diet)) [%],Damage on dorsal fin [4],Loss of shells [4],Wounds on skin [4]
Nc1nc2c(Cc3cccnc3)c[nH]c2c(=O)[nH]1 [BCX-34],14,–,–,–,–,–,–,–,–,–,–,–,–,–,–,–,–
"O=C(O)[C@@H]1C[C@@H](O)CN1 [Hydroxyproline, L-4-Hydroksyproline]",–,3-4 g per kg diet,much lower than previously known (normal values); also recorded: much lower than earlier published (normal values),very high plasma levels,2.5-3 g per kg diet,growth promoting effect,growth promoting effect,14.0,155,2.9,growth promoting effect,growth promoting effect,20-30%,~100,lesser degree of damage to the dorsal fin,lower levels of fish scale loss,lesser degree of wounding

# Reference: US20120004157A1, “HYDROXYPROLINE COMPOSITIONS AND USES THEREOF” (Bergen Teknologioverforing AS, priority 2007, published 2012)
